Results published in US5206014A, “Synthetic nonapeptide for use as an adjuvant” (Sclavo, S.p.A., priority 1987, dated 1993).

What was measured:
Assay type in all cases: in vivo
[1] = system: secondary antibody response to SRBC; assay: Secondary antibody response to SRBC, total PFC/spleen (IgM+IgG) in immunized mice; conditions: measured four days later, PBS control 29.992
Experimental: The number of IgG class antibody-secreting cells characteristic of the secondary response is determined, before the complement is added, by adding a direct rabbit antiserum against mouse immunoglobulins.
(§1) According to the invention, therefore, anti-body secreting cells of Classes IgM and IgG are determined by isolating lymphocytes from the spleen of mice immunized with SRBC and SIII antigens and treated by various methods and with various doses of peptide 163-171.TFA and peptide 163-171.HCl. To this end use has been made with identical results of inbred male C3H/HeNCr1BR mice and male and female C3H/HeJ mice weighing about 25 g. According to the invention, SRBC and SIII antigens previously dissolved in phosphate buffer (PBS) were inoculated in the mice, intravenously and intraperitoneally respectively, at a concentration of 1-2×10^8 SRBC/0.2 ml of PBS and 0.5 μg/0.5 ml of PBS.
Mice immunized with SRBC as in Example 1 hereinbefore were intraperitoneally re-inoculated four days after the first inoculation with a similar dose of SRBC antigens and simultaneously with 12, 36, 100 mg/kg peptide 163-171.TFA and 500 - 1000 - 2000 U/kg of human IL-1-β.
The immunostimulating activity of the peptide on the secondary response to SRBC was also determined by administering the same doses of peptide and human IL-1β but only with the first inoculation.
Four days after the second dose the mice were killed and the number of PFC/spleen was determined as in Example 1, after combining the complement with a rabbit serum against mouse immunoglobulin at a final dilution of 1:200.
^a The mice intravenously inoculated with 1-2 × 10^8 SRBC o
day -10 and were given a similar dose on day 0 and simultaneously treated
intraperitoneally with PBS (control) or with various doses of peptide
163-171.TFA or hu rIL1β. The total number of antiSRBC PFC was
measured four days after the second inoculation of antigen.
The procedure was the same as in Example 4, the antigen being intravenously inoculated together with preparations of peptide 163-171.TFA and 163-171.HCl (from 100 pg/kg to 100 μg/kg in PBS).

[2] = system: primary antibody response to sheep's red corpuscles (SRBC), thymo-dependent antigen; assay: Primary antibody response to SRBC, direct haemolysis plaque (PFC/spleen, IgM) in immunized mice
Experimental: (§2) More particularly, the immunostimulating activity of peptides 163-171 TFA and 163-171.HCl were assayed in the antibody response to sheep's red blood compuscles, thymo-dependent antigens and in response to the polysaccharide of Streptococcus pneumoniae serotype 3 (SIII), a thymo-independent antigen having low immunogenicity by using the method of haemolysis of plaques described by Cunningham A. J. and Szenberg (Immunology, 14, 599, 1968).
The method consists in determining the number of cells which secrete antibodies specific to a given antigen. It consists in immunizing mice with the antigen to be assayed, placing lymphocytes obtained from the spleen of the immunized mice in contact with the same antigen, and finally in detecting the haemolysis plaques by adding complement.
Lysis zones (plaque-forming cells PFC) are observed at the place where the antigen-antibody reaction occurs, i.e. at each cell producing specific antibodies.
as §1, with “PBS. […]” for “PBS.”
The slides, sealed at the edges with paraffin, were then incubated in a thermostat at 37° C. for one hour. At the end of this period, the plaques of direct haemolysis were counted using a light-contrast visor, indicating the number of lymphocytes secreting antibodies (PFC). The thus-detected antibodies were in Class IgM, specific to the primary antibody response. […]

[3] = system: primary response to polysaccharide of Streptococcus pneumoniae serotype 3 (SIII); assay: Primary antibody response to thymo-independent antigen SIII, PFC/spleen in immunized mice; conditions: 500 U/kg intraperitoneally
Experimental: as §2
as §1, with “PBS. […]” for “PBS.”
The adjuvant activity of peptide 163-171.TFA and of human IL-1-β were then determined as in Example 1 by using 25 μl of a 10% suspension of SIII antigen conjugated with SRBC by chromium chloride in PBS (Baker P. J. et al. Appl. Microbiol. 17, 422 (1969)). […]

Substance: hu rIL-1β: human interleukin 1β (Genzyme Corporation Boston), comparator adjuvant
- Average of total anti-SRBC PFC-spleen (95% confidence limits) ([1]; 500 U/kg intraperitoneally with second SRBC inoculum (day 0)): 59.841 (45.604-78.343) PFC-spleen
- Average of total anti-SRBC PFC-spleen (95% confidence limits) ([1]; 1000 U/kg intraperitoneally with second SRBC inoculum (day 0)): 77.624 (61.502-97.499) PFC-spleen
- Average of total anti-SRBC PFC-spleen (95% confidence limits) ([1]; 2000 U/kg intraperitoneally with second SRBC inoculum (day 0)): 100.000 (84.139-118.850) PFC-spleen
- Average of total anti-SRBC PFC-spleen (95% confidence limits) ([1]; 4000 U/kg intraperitoneally with second SRBC inoculum (day 0)): 42.364 (29.853-59.979) PFC-spleen
- Statistical significance versus control of PFC/spleen, primary response to SRBC (FIG. 1-B) ([2]; 4000 U/kg intraperitoneally): non-significant
- Effect on number of plaques/spleen, primary response to SRBC (FIGS. 1A, 1B) ([2]; intraperitoneal, peptide 12-100 mg/kg, IL-1β 500-4000 U/kg, depending on the dose): increase in the number of plaques/spleen
- Optimum intravenous dose ([2]; intravenous, response not specified): 0.0001 µg/kg
- Statistical significance versus control of PFC/spleen, primary response to SIII (FIG. 5) [3]: non-significant
